Laboratory results published in US20100286247A1, “Methods of Protection from Oxidative Stress” (Trustees of Boston University, priority 2005, published 2010).
Entries after “also recorded” stand apart in the source; their conditions may differ. {P} = phosphate

What was measured:
[1] = test system: SOD2 protein; experiment: Western blot analysis of antioxidant enzymes: SOD2 protein; format: cell-based, human
Protocol: Cell lysates were harvested at various intervals after T-oligo treatment in harvest buffer containing 0.25 M Tris HCl (pH 7.5), 0.375 M NaCl, 2.5% sodium deoxycholate, 1% Triton X-100, 25 mM MgCl2, 0.1 mg/ml aprotinin (Sigma, St. Louis, Mo.) and 1 mM phenylmethyl sulfonyl flouride (PMSF) (Sigma). Samples were sheared through a fine needle syringe, sonicated, centrifuged and the supernatant was isolated. Total cellular protein concentrations were determined spectrophotometrically with the Bio-Rad protein assay (Bio-Rad Laboratories, Inc, Hercules, Calif.). Equal amounts of total protein from each sample (35-65 μg) were separated by 10-15% polyacrylamide gel electrophoresis, and transferred to nitrocellulose membranes. After transfer, gels were stained with Coomassie Blue (Sigma) to ascertain evenness of loading.
Membranes were reacted with antibodies diluted in Tris-based buffer with nonfat milk powder as a blocking agent. […] Antibody binding was detected with electrochemical luminescence (ECL kit, NEN Life Science Products, Inc.) and exposure to XAR film (Eastman Kodak Co.).
Northern and western films as well as stained membranes and pictures of ethidium bromide-stained gels were digitally scanned and analyzed by densitometry. […]

[2] = test system: intracellular ROS in normal newborn human dermal fibroblasts; experiment: Dichlorofluorescein diacetate (DCF) assay of intracellular ROS, FACScan; format: cell-based; conditions: for DCF fluorescence (intracellular ROS) compared to diluent: 100 μM pTT / pCC, 40 μM TO / TOC1 / TOC2
Protocol: Normal newborn human dermal fibroblasts were cultured from foreskin specimens into DMEM supplemented with 10% CS as described above. Due to the large number of cells needed for time course experiments, and to minimize donor variability, in dichlorofluorescein diacetate FACS experiments cells from three different donors were combined.
Purified lyophilized oligonucleotides were obtained and prepared for cell treatment as described above. All treatments involved a single stimulation with T-oligo, after which cells were harvested at various times without medium changes or addition of more T-oligo. Treatment doses were 100 μM pTT and 40 μM TO except in dose-response experiments; these concentrations were determined in previous experiments to be optimal for measuring DNA damage responses using these T-oligos.^142,150,228
Complementary and scrambled oligonucleotides were chosen for each T-oligo. pAA and pCC were used as controls for pTT, and the complementary 11-base pCTAACCCTAAC (TOC1, SEQ ID NO: 22) and a scrambled sequence pGATCGATCGAT (TOC2, SEQ ID NO: 23) were used as controls for the T-oligo TO.
H2DCFDA stock solution (1 mg/ml) was thawed and diluted in Hanks' Balanced Salt Solution, 1× liquid without phenol red (GIBCO Invitrogen, Carlsbad, Calif.), to a working concentration of 100 μM immediately before use. H2DCFDA is converted by intracellular esterases to dichlorofiuorescein (DCF). When oxidized by intracellular ROS, it will fluoresce at 530 nm when excited by 480 nm light. […] All work involving DCF was conducted in minimal room light. Peaks on FACScan plots that shift to the right indicate greater fluorescence and increased ROS levels. For NADPH oxidase inhibitor studies using DPI,^237,239 the DPI stock solution was added directly to DCF treatment solution to achieve a final DPI treatment concentration of 50 μM.
Hydrogen peroxide positive controls were used to rule out saturation of the DCF probe in the T-oligo dose response experiments. Fibroblasts were exposed to 1 mM, 5 mM and 10 mM H2O2 solutions in PBS for 15 minutes following DCF incubation for 30 minutes, harvested and analyzed as described above.
The horseradish peroxidase assay data was analyzed by one-way ANOVA. DCF assay FACScan results were analyzed using Cellquest software (Becton-Dickinson, Calif.). All peak positions on x-axis of the fluorescence histogram plot were determined visually (using the software) and recorded as a number. Peak position values were then compared using one-way ANOVA.

[3] = test system: human newborn fibroblasts; experiment: Propidium iodide (PI) staining of nonviable cells; format: cell-based; conditions: doses 25-250% of standard dose (40 μM TO, 100 μM pTT); positive control 1 mM H2O2
Protocol: Propidium iodide (PI, Sigma) was used to stain nonviable cells for some experiments. PI stock solution (1 mg,/ml) was added to samples immediately after harvesting to achieve a final concentration of 2 μg/ml.
To better characterize the dose effects of different pTT and 11-base T-oligo doses, a dose response study was conducted. For each T-oligo the doses were 25-250% of the standard dose used (40 μM for TO and 100 μM for pTT). […] Panel C is a compilation of the maximum DCF peak shifts measured with each treatment: diluent, 250 μM pTT, 100 μM TO and 1 mM as the positive control. […] There is a significant difference in DCF fluorescence stimulated by the two treatments when the same doses were used (25, 40 and 100 μM) (2-way ANOVA, p=0.0038).

[4] = test system: human dermal fibroblasts; experiment: Senescence-associated β-galactosidase (SA-β-gal) assay; format: cell-based; conditions: for SA-β-gal positive cells, result in words: up to 72 hours of treatment
From the text: Subconfluent senescent fibroblasts were found by Dimri et al. to stain blue in an assay that measures β-galactosidase activity at pH 6.0.^240 As per their protocol, cells were fixed with a 2% formaldehyde and 0.2% glutaraldehyde solution, washed, and stained overnight in X-gal solution. The next day, 3-4 photographs were taken of representative fields in each plate under a 10× microscope objective using coded labels. The number of blue (senescent) cells in each photograph could then be determined in a blinded fashion. The SA-β-gal assay was performed in parallel with the DCF time-course experiments, using the same mixture of donor cells and seeding densities.

Row | Substance | SOD2 protein maximal relative induction compared to diluent ([1]; 100 μM pTT, at 24 hours, three donors, mean±SEM) | DCF fluorescence (intracellular ROS) compared to diluent [2] | PI fluorescence (toxicity / nonviable cells) [3] | cells staining positive in the SA-β-gal assay ([4]; 40 μM TO or 100 μM pTT, 24-72 hours of treatment) | SA-β-gal positive cells, result in words [4] | SOD2 protein level ([1]; 40 μM, within several hours, up to 168 hours) | maximum amount of DCF fluorescence, TO vs pTT ([2]; 40 μM TO compared to 100 μM pTT) | time measurable ROS stimulation starts ([2]; FIG. 14 donor cells, 100 μM pTT, 40 μM TO) [h] | time of measurable ROS stimulation ([2]; FIG. 16 representative time course, donor variability) [h] | ROS production (DCF fluorescence) relative to pTT at the same dose ([2]; within 72 hours, 25, 40 and 100 μM doses)
1 | 5′-phosphorylated thymidine dinucleotides [pTT] | 31% (±20%) | statistically significant increase in DCF fluorescence | less than that induced by the positive control; also recorded: comparable to diluent treatment | Less than 10% | did not result in a significant number of SA-β-gal cells; also recorded: did not display S.A. β-gal activity |  |  |  |  | 
2 | pGTTAGGGTTAG (5' {P}, sugars by position and backbone not given here) [TO] |  | statistically significant increase in DCF fluorescence | less than that induced by the positive control; also recorded: comparable to diluent treatment |  | did not display S.A. β-gal activity | induced | greater than ROS stimulated by pTT-treated cells | 36 | ≤ 36 | up to 1.5 times
